Measured values: patent US4092420A, “Novel soft N-chloroamino alcohol derivatives exhibiting antibacterial activity” (INTERx Research Corporation, priority 1977, dated 1978)
≈ marks a conversion by molar mass, not a printed value.

What was measured:
S. epidermidis = assay: Contact germicidal efficiency (sterilization time); format: cell-based, Staphylococcus epidermidis
Description: (§1) CONTACT GERMICIDAL EFFICIENCY OF N-CHLORAMINES AS A FUNCTION
(§2) ^a Time intervals screened 0.5, 1, 2, 3, 4 and 5 minutes.
(§3) ^a Time intervals screened 0.5, 1, 2, 3, 4, 5, 6, 7, 8, 9 and 10
(§4) ^a Time intervals screened 0.5, 1, 2, 3, 4, and 5 minutes.
(§5) ^b Time intervals screened 0.5, 1, 2, 3, 4, 5, 6, 7, 8, 9 and 10
(§6) Immediately preceding the screen, the compound is weighed and diluted with a buffer or other solvent to give the final concentration desired. The buffer or solvent chosen depends on the conditions of the screen and could be one of the following: 0.1 M NaOAc, pH 4.6; 0.1 M NaH2 PO4, pH 7.0; 0.1 M Na2 B4 O7, pH 8.8; 35% methanol in one of the aforementioned buffers; 10% Triton × 100 in buffer, etc.
(§7) The positive chlorine concentration of the test solution is then determined iodometrically.
(§8) Media used for the Screen are Nutrient Broth, BBL# 11479 and Nutrient Agar, BBL# 11472 prepared according to label directions. The broth is dispensed in 75 ml amounts of flasks for overnight cultures and in 5 ml amounts to culture tubes for subculturing during the Screen. Agar plates are prepared as usual.
(§9) Overnight cultures are prepared by inoculating from stock cultures into the 75 ml flasks of nutrient broth and incubating for 15 hours at 37° C.
(§10) The iodometrically characterized test solution is dispensed in 5 ml amounts to seven small stoppered flasks. The organisms are screened one at a time as follows:
(§11) A 0.2 ml portion of the overnight culture is inoculated into 5 ml of 0.9% NaCl for use in controls. A 0.2 ml portion of the overnight culture is inoculated into a flask containing 5 ml of the test solution, an automatic timer is simultaneously triggered and the solution mixed. At time intervals of 30 seconds, 1, 2, 3, 4, 5, 6, 7, 8, 9, and 10 minutes a loopful of the inoculated solution is subcultured into 5 ml of sterile nutrient broth and mixed by a Vortex Genie Mixer, the high dilution serving to stop the action of the compound. At the end of the ten minute screen, the entire procedure is repeated for each of the remaining six organisms. All of the subculture tubes are incubated at 37° C and checked for signs of growth by turbidity at 24 hr., 48 hr., 3, 5, and 7 days. The earliest subculture time at which no growth is present in the subculture tube is considered the endpoint and is recorded as that time, e.g., 7 minutes.
(§12) The test solution is prepared and characterized as above but is made up at twice the concentration desired. The solution is diluted 1:1 with Rehydrated Tissue Culture Dessicated Horse Serum, Difco #5357-72 and dispensed in a 5 ml amount to a small flask. The mixture is incubated at Room Temperature for 30 minutes to allow denaturation of the compound by the serum and then screened as above.
(§13) The 5 ml mixture of serum and test solution are prepared in sequence to allow as close to 30 minutes as possible before the beginning of the screen of each organism.
(§14) Bacteria: Staphylococcus aureas Smith (or 209), Escherichia coli AB 1932-1, 1100/B22 and Vogel, Streptococcus pyogenes C203 Salmonella typhimurium 14028, Bacillus subtilis 6051-1, Klebsiella pneumoniae 10031, Pseudomonas aeruginosa 9027, Bordetella bronchiseptica 4617 and Staphylococcus epidermidis 12228.

P. aeruginosa [1] = assay: Contact germicidal efficiency (sterilization time); format: cell-based, Pseudomonas aeruginosa
Description: as §1, §2, §3, §4, §5, §6, §7, §8, §9, §10, §11, §12, §13, §14

K. pneumoniae [2] = assay: Contact germicidal efficiency (sterilization time); format: cell-based, Klebsiella pneumoniae
Description: as §1, §2, §3, §4, §5, §6, §7, §8, §9, §10, §11, §12, §13, §14

B. bronchiseptica = assay: Contact germicidal efficiency (sterilization time); format: cell-based, Bordetella bronchiseptica
Description: as §1, §2, §3, §4, §5, §6, §7, §8, §9, §10, §11, §12, §13, §14

[3] = Solubility in 30% methanol: 0.1 M sodium dihydrogen phosphate, pH 7.0; format: physicochemical; conditions: 0.1 m nah2po4, pH 7, organic solvent or mixture, Concentration (footnote: Solubility in 30% methanol: 0.1 M sodium dihydrogen phosphate, pH 7.0)
E. coli = assay: Minimal inhibitory concentration (MIC), Example V; format: cell-based; conditions: Escherichia coli
Excerpt: (§15) MINIMAL INHIBITORY CONCENTRATION OF 2-AMINO-2-METHYL-1-PROPYL
(§16) ^a Minimal inhibitory concentration expressed in parts per million
(§17) sequence inhibited the test organism at the higher concentrations.
(§18) THE ANTIBACTERIAL SCREEN - EXAMPLE V

A. niger = assay: Minimal inhibitory concentration (MIC), Example V; format: cell-based; conditions: Aspergillus niger
Excerpt: as §15, §16, §17, §18

T. mentagrophytes = assay: Minimal inhibitory concentration (MIC), Example V; format: cell-based; conditions: Trichophyton mentagrophytes
Excerpt: as §15, §16, §17, §18

P. aeruginosa [4] = assay: Minimal inhibitory concentration (MIC), Example V; format: cell-based; conditions: Pseudomonas aeruginosa
Description: as §18
(§19) THE ANTIBACTERIAL SCREEN - EXAMPLES W - Z (Autotiter IV)
(§20) (a) Compounds. All compounds to be screened are weighed (approx. 10 mg) on the day preceding the test date. Each compound is solubilized on the day of assay in appropriate solvent and diluted automatically in the Autotiter IV with distilled water (buffer can be employed here also).
as §14
(§21) (c) Inocula. Prior to utilization in the Autotiter IV, all bacteria are cultured for 18-20 hr. (37° C) in tryptose phosphate broth (TP), except, S. pyogenes C203, which is cultured in Brain Heart Infusion broth plus 10% normal horse serum. Immediately prior to testing, each culture is adjusted to an optical density of 0.10 (650 nm), employing a Bausch & Lomb Spectronic 20, and diluted subsequently into double strength medium to approximately 2 × 10^5 viable organisms per ml.
(§22) 1. An automated injector system dispenses 0.05 ml of diluent (sterile H2 O or buffer) to all cups of the autotiter trays from rows 2 through 7.
(§23) 2. The loops (for sequential dilutions of the compounds are moistened by immersion into 70% ethyl alcohol. After removal of excess alcohol by blotting, the loops are moved to the first row of cups in the autotray containing 0.10 ml of the compound to be diluted and tested (usually, this initial concentration is 500 to 1000 mcg/ml, but can be varied upward or downward). The loops are lowered and sequentially transfer the diluted solutions of the compound through row 7.
(§24) Immediately after each dilution is made, each cup is automatically inoculated with 0.05 ml of the appropriate test organism. This inoculation derives from a second injector system containing the organism in double-strength medium. The total operation consists of the automatic dilution of a single compound in each of 8 rows of the Autotiter try.
(§25) After these operations, we reverse the tray and a second compound is diluted over the other one-half of the tray and inoculated, subsequently, with 8 organisms. Thus, for each Autotiter Tray, two compounds are screened against 8 different organisms at dilutions ranging from 1:2 to 1:128.
(§26) (e) Incubation. The inoculated Autotiter trays are incubated at 37° C for 18 - 20 hr. At the end of this period, each tray is examined for the presence or absence of growth (turbidity). The lowest concentration of the compound inhibiting growth is recorded as the minimal inhibitory concentration (MIC).

S. aureus = assay: Minimal inhibitory concentration (MIC), Example V; format: cell-based; conditions: Staphylococcus aureus
Description: as §18, §19, §20, §14, §21, §22, §23, §24, §25, §26

S. pyogenes = assay: Minimal inhibitory concentration (MIC), Example V; format: cell-based; conditions: Streptococcus pyogenes
C. albicans = assay: Minimal inhibitory concentration (MIC), Example V; format: cell-based; conditions: Candida albicans
Excerpt: MINIMAL INHIBITORY CONCENTRATION OF 2-AMINO-2-METHYL-1-PROPYL […]
as §18

K. pneumoniae [5] = assay: Minimal inhibitory concentration (MIC), Example V; format: cell-based; conditions: Klebsiella pneumoniae
Description: as §15, §16, §17, §18
Klebsiella pneumoniae ATCC# 10031
as §19, §20, §14, §21, §22, §23, §24, §25, §26

[6] = Example Z, S. pidermidis, pH 4.6, absence of horse serum, IV j 79 ppm (21 PPMCl+), IV k 5800 (1057), IV l 1112 (209)
[7] = Example Z, pH 4.6, absence of horse serum, IV j 79 ppm (21 PPMCl+), IV k 5800 (1057), IV l 1112 (209)
[8] = Example X, pH 4.6, no horse serum, IV c 404 ppm (69 PPMCl+), IV g 489 ppm (143 PPMCl+)
[9] = Example X, pH 7.0, no horse serum, IV c 1886 ppm (323 PPMCl+), IV g 409 ppm (120 PPMCl+)
[10] = Example X, pH 9.3, no horse serum, IV c 1704 ppm (292 PPMCl+), IV g 319 ppm (94 PPMCl+)

Compound | MIC (E. coli) [µg/mL] | MIC (A. niger) [µg/mL] | MIC (T. mentagrophytes) [µg/mL] | MIC (P. aeruginosa [4]) [µg/mL] | MIC (S. aureus) [µg/mL] | MIC (S. pyogenes) [µg/mL] | MIC (C. albicans) [µg/mL] | MIC (K. pneumoniae [5]) [µg/mL] | also measured
C[n+]1cccc(C(=O)OCC(C)(C)N(Cl)Cl)c1 [IV l, 2-N,N-Dichloroamino-2-methyl-1-propyl nicotinate methylfluorosulfonate] |  |  |  |  |  |  |  |  | Sterilization Time (S. epidermidis; [6]): 3 min; Sterilization Time (P. aeruginosa [1]; [7]): 3 min; Sterilization Time (K. pneumoniae [2]; [7]): 5 min; Sterilization Time (B. bronchiseptica; [7]): 5 min
CCCCCC(=O)OCC(C)(C)N.Cl [III d, 2-Amino-2-methyl-1-propyl hexanoate hydrochloride] | > 62.5 | > 62.5 | > 62.5 | 62.5 | > 62.5 | 62.5 | > 62.5 | > 62.5 | solubility [3]: 1040 µg/mL
CCCCCCCC(=O)OCC(C)(C)NCl [IV e, 2-N-Chloroamino-2-methyl-1-propyl octanoate] | > 62.5 | > 62.5 | > 62.5 | > 62.5 | > 62.5 | > 62.5 | > 62.5 | > 62.5 | 
CCCC(=O)OCC(C)(C)N(Cl)Cl [IV f, 2-N,N-Dichloroamino-2-methyl-1-propyl butyrate] | > 62.5 | > 62.5 | > 62.5 | 62.5 (≈ 274 µM) | > 62.5 | 62.5 (≈ 274 µM) | > 62.5 | > 62.5 | 
CCCCCC(=O)OCC(C)(C)N(Cl)Cl [IV h, 2-N,N-Dichloroamino-2-methyl-1-propyl hexanoate] | > 62.5 | > 62.5 | 62.5 (≈ 244 µM) | > 62.5 | > 62.5 | 62.5 (≈ 244 µM) | > 62.5 | > 62.5 | 
CC(C)(COC(=O)c1cccnc1)N(Cl)Cl [IV j, 2-N,N-Dichloroamino-2-methyl-1-propyl nicotinate] |  |  |  |  |  |  |  |  | Sterilization Time (S. epidermidis; [6]): 3 min; Sterilization Time (P. aeruginosa [1]; [7]): 2 min; Sterilization Time (K. pneumoniae [2]; [7]): 1 min; Sterilization Time (B. bronchiseptica; [7]): 4 min
CCCCCC(=O)OCC(C)(C)NCl [IV d, 2-N-Chloroamino-2-methyl-1-propyl hexanoate] | > 62.5 | > 62.5 | > 62.5 | > 62.5 | > 62.5 | > 62.5 | > 62.5 | > 62.5 | 
CCCC(=O)OCC(C)(C)NCl [IV b, 2-N-Chloroamino-2-methyl-1-propyl butyrate] | > 62.5 | > 62.5 | > 62.5 | > 62.5 | > 62.5 | > 62.5 | > 62.5 | > 62.5 | 
CCCCCCCC(=O)OCC(C)(C)N.Cl [III e, 2-Amino-2-methyl-1-propyl octanoate hydrochloride] | > 62.5 | > 62.5 | > 62.5 | > 62.5 | > 62.5 | > 62.5 | > 62.5 | > 62.5 | solubility [3]: 1040 µg/mL
CCCCCCCC(=O)OCC(C)(C)N(Cl)Cl [IV i, 2-N,N-Dichloroamino-2-methyl-1-propyloctanoate] | > 62.5 | > 62.5 | 62.5 (≈ 220 µM) | > 62.5 | 62.5 (≈ 220 µM) | 62.5 (≈ 220 µM) | > 62.5 | > 62.5 | 
CC(C)(C)C(=O)OCC(C)(C)N(Cl)Cl [IV g, 2-N,N-Dichloroamino-2-methyl-1-propyl 2,2-dimethylproprionate] | > 125 | > 125 | > 125 | 250 (≈ 1030 µM) | 250 (≈ 1030 µM) | 250 (≈ 1030 µM) | > 125 | > 125 | Sterilization Time (S. epidermidis; Example X, S. epidermidis, pH 4.6, no horse serum, IV c 404 ppm (69 PPMCl+), IV g 489 ppm (143 PPMCl+)): 0.5 min; Sterilization Time (S. epidermidis; Example X, S. epidermidis, pH 7.0, no horse serum, IV c 1886 ppm (323 PPMCl+), IV g 409 ppm (120 PPMCl+)): 2 min; Sterilization Time (S. epidermidis; Example X, S. epidermidis, pH 9.3, no horse serum, IV c 1704 ppm (292 PPMCl+), IV g 319 ppm (94 PPMCl+)): 2 min; Sterilization Time (P. aeruginosa [1]; [8]): 0.5 min; Sterilization Time (P. aeruginosa [1]; [9]): 0.5 min; Sterilization Time (P. aeruginosa [1]; [10]): 0.5 min; Sterilization Time (K. pneumoniae [2]; [8]): 0.5 min; Sterilization Time (K. pneumoniae [2]; [9]): 3 min; Sterilization Time (K. pneumoniae [2]; [10]): 2 min; Sterilization Time (B. bronchiseptica; [8]): 1 min; Sterilization Time (B. bronchiseptica; [9]): 2 min; Sterilization Time (B. bronchiseptica; [10]): 2 min
CC(=O)OCC(C)(C)N(Cl)Cl [IV a, 2-N,N-Dichloroamino-2-methyl-1-propyl acetate] | > 62.5 | > 62.5 | 62.5 | 62.5 | > 62.5 | 62.5 | > 62.5 | > 62.5 | 
